Broadly, the EC50 is the midpoint of the concentration-response curve.

Here are results for 14 molecules from patent publication US9951065B2 (Gilead Sciences, Inc., priority 2015, dated 2018).

T1 sequence (P14902 whole entry): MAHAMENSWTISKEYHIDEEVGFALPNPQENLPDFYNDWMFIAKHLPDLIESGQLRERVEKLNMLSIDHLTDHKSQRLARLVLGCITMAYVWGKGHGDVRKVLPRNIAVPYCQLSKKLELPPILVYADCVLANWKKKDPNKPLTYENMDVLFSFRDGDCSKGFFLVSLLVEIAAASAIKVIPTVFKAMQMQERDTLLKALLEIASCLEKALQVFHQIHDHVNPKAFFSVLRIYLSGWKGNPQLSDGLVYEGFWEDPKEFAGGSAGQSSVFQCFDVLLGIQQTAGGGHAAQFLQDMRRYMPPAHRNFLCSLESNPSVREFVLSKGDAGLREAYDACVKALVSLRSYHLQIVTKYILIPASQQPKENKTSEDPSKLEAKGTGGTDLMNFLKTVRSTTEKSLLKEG

This assay concerns the target T1, IDO1 (Homo sapiens, UniProt P14902).
T1 construct: HeLa cells were treated with a test compound in the presence of IFNγ, which induces IDO1 expression; host or cells: H1-HeLa cells, IDO1 induced with IFNγ
Put plainly: Cell-based (HeLa) assay for measurement of IDO1 inhibition (kynurenine levels in supernatant after IFNγ induction). As to conditions: HeLa cells, IFNγ-induced IDO1, kynurenine in supernatant after 48 hour incubation; geometric mean of a minimum of four determinations. The procedure: Example 509. Cell-Based (HeLa) Assay for Measurement of IDOL Inhibition
To measure IDO1 inhibition in tissue culture, HeLa cells were treated with a test compound in the presence of IFNγ, which induces IDO1 expression. Following incubation, cell supernatants were assayed for kynurenine levels, an indicator of IDO1 activity.
H1-HeLa cells (ATCC #CRL-1958) were seeded in 384-well plates (Greiner #82051-282) at a volume of 50 μL/well in DMEM (Corning #15-018-CM) supplemented with 10% FBS (Corning #35-011-CV) and 1% P/S/G (Corning #30-009-CL) at a density of 1,250 cells/well and incubated overnight at 37° C., 5% CO2/100% humidity. The following day, the test compounds were added in DMSO (0.5% final) at various concentrations, and IDO1 was inducibly expressed by the addition of 50 uL/well of […] of INFγ (Peprotech #300-02) in cell plating media. As a […] control, 50 uL of the cell plating media without IFNγ was added to several wells. Following a 48 hour incubation, the plates were spun down at 1,200 RPM for 5 min at 10° C. 65 μL/well of the supernatant was then transferred to new 384-well plates (Thermo #262160) that contained 10 uL/well of 30% TCA (Sigma #TO699), and the plates were sealed and incubated at 60° C. for 30 min. The plates were then centrifuged for 15 min at 2,000 RPM at 10° C. 40 μL/well of the supernatant was transferred to new 384-well plates (Thermo #262160) and was reacted with 40 μL/well of 2% (w/v) p-dimethlyaminobenzaldehyde (Sigma #156417) in glacial acetic acid (Sigma #A6283). The reaction was incubated at room temperature for 10 min and absorbance at 480 nm was read using a PerkinElmer Envision plate reader.
Data in Table 1 were normalized based on positive (−IFNγ) and negative (+IFNγ) controls and EC50 values were calculated from the fit of the dose response curves to a four-parameter equation. All EC50 values represent geometric mean values of a minimum of four determinations. These assays generally produced results within 2-fold of the reported mean.
Molecule `CC(C)NCc1nc2c(/C(=N/O)Nc3ccc(F)c(Cl)c3)cc(F)c(F)c2[nH]1` [Example 51, N-(3-Chloro-4-fluorophenyl)-6,7-difluoro-N′-hydroxy-2-((isopropylamino)methyl)-1H-benzo[d]imidazole-4-carboximidamide] had an EC50 of 566 nM. This lies in the sub-micromolar range.

For `CN(C)Cc1nc2c(/C(=N/O)Nc3ccc(F)c(Cl)c3)cc(F)c(F)c2[nH]1` [Example 52, N-(3-Chloro-4-fluorophenyl)-2-((dimethylamino)methyl)-6,7-difluoro-N′-hydroxy-4H-benzo[d]imidazole-4-carboximidamide], a half-maximal response (EC50) required 526 nM.

In turn, `CN(C)CCc1nc2c(/C(=N/O)Nc3ccc(F)c(Cl)c3)cc(F)c(F)c2[nH]1` [Example 53, N-(3-Chloro-4-fluorophenyl)-2-(2-(dimethylamino)ethyl)-6,7-difluoro-N′-hydroxy-1H-benzo[d]imidazole-4-carboximidamide] gave an EC50 of 916 nM.

Consider `CN(C)CCc1nc2c(/C(=N/O)Nc3ccc(F)c(Br)c3)cc(F)c(F)c2[nH]1` [Example 54, N-(3-Bromo-4-fluorophenyl)-2-(2-(dimethylamino)ethyl)-6,7-difluoro-N′-hydroxy-1H-benzo[d]imidazole-4-carboximidamide], for which a half-maximal response (EC50) required 461 nM.

Molecule `CN(C)CCc1nc2c(/C(=N/O)Nc3cccc(Br)c3)cc(F)c(F)c2[nH]1` [Example 55, N-(3-Bromophenyl)-2-(2-(dimethylamino)ethyl)-6,7-difluoro-N′-hydroxy-1H-benzo[d]imidazole-4-carboximidamide] had an EC50 of 379 nM.

Regarding `CN(C)CCc1nc2c(/C(=N/O)Nc3cccc(Cl)c3)cc(F)c(F)c2[nH]1` [Example 56, N-(3-Chlorophenyl)-2-(2-(dimethylamino)ethyl)-6,7-difluoro-N′-hydroxy-1H-benzo[d]imidazole-4-carboximidamide], the EC50 amounted to 562 nM.

`CNCCc1nc2c(/C(=N/O)Nc3ccc(F)c(Cl)c3)cc(F)c(F)c2[nH]1` [Example 57, N-(3-Chloro-4-fluorophenyl)-6,7-difluoro-N′-hydroxy-2-(2-(methylamino)ethyl)-1H-benzo[d]imidazole-4-carboximidamide]: it took 1090 nM to reach a half-maximal effect (EC50).

For the molecule `CCN(CC)CCc1nc2c(F)c(F)cc(/C(=N/O)Nc3ccc(F)c(Cl)c3)c2[nH]1` [Example 58, N-(3-Chloro-4-fluorophenyl)-2-(2-(diethylamino)ethyl)-4,5-difluoro-N′-hydroxy-1H-benzo[d]imidazole-7-carboximidamide], the concentration giving a half-maximal response (EC50) was 786 nM.

For the molecule `O/N=C(\Nc1ccc(F)c(Cl)c1)c1ccnc2nc[nH]c12` [Example 59, N-(3-Chloro-4-fluorophenyl)-N′-hydroxy-1H-imidazo[4,5-b]pyridine-7-carboximidamide], it took 208 nM to reach a half-maximal effect (EC50).

`O/N=C(\Nc1cc(Cl)ccc1F)c1ccnc2nc[nH]c12` [Example 60, N-(5-Chloro-2-fluorophenyl)-N′-hydroxy-1H-imidazo[4,5-b]pyridine-7-carboximidamide] returned an EC50 of 322 nM.

In turn, `O/N=C(\Nc1cc(Br)c(F)cc1F)c1ccnc2nc[nH]c12` [Example 61, N-(5-Bromo-2,4-difluorophenyl)-N′-hydroxy-1H-imidazo[4,5-b]pyridine-7-carboximidamide] displayed a concentration for a half-maximal effect (EC50) of 371 nM.

For `O/N=C(\Nc1cc(Cl)c(F)cc1F)c1ccnc2nc[nH]c12` [Example 62, N-(5-Chloro-2,4-difluorophenyl)-N′-hydroxy-1H-imidazo[4,5-b]pyridine-7-carboximidamide], the 50% effective concentration (EC50) came to 385 nM.

`O/N=C(\Nc1cc(Cl)c(F)c(Cl)c1)c1ccnc2nc[nH]c12` [Example 63, N-(3,5-Dichloro-4-fluorophenyl)-N′-hydroxy-1H-imidazo[4,5-b]pyridine-7-carboximidamide] showed a half-maximal effective concentration (EC50) of 774 nM.

With `O/N=C(\Nc1ccc(F)c(Cl)c1F)c1ccnc2nc[nH]c12` [Example 64, N-(3-Chloro-2,4-difluorophenyl)-N′-hydroxy-1H-imidazo[4,5-b]pyridine-7-carboximidamide], a half-maximal response (EC50) required 813 nM. This EC50 and that of the molecule before are within 1.5-fold of each other.
